Patent publication US12503452B2 (Curza Global, LLC, priority 2019, dated 2025)
Structures can show the parent of a compound that is named as a salt. Where two headings read alike, the source gives them in different places.

Experiments:
E. faecalis (Ef) = assay: Broth microdilution minimum inhibitory concentration (MIC); assay type: cell-based; details: for MIC: Enterococcus faecalis, read-out: Ef + bicarb MIC
Outline: (§1)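 CLSI broth microdilution (M07-A9, slightly modified) in CAMHB, optionally with 6.25 or 25 mM sodium bicarbonate or 0–50% heat-inactivated human serum. Two-fold serial dilutions (8 concentrations, triplicate) were inoculated at 5×10^4 CFU/well from 0.5 McFarland cultures grown at 35±2 °C.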

A. baumannii (Ab) = assay: as above; assay type: cell-based; details: for MIC: Acinetobacter baumannii, read-out: Ab + bicarb MIC
Outline: as §1

E. coli (Ec) = assay: as above; assay type: cell-based; details: for MIC: Escherichia coli, read-out: E. coli + bicarb MIC
Outline: as §1

P. aeruginosa (Pa) = assay: as above; assay type: cell-based; details: for MIC: Pseudomonas aeruginosa, read-out: Pa MIC + bicarb
Outline: as §1

S. aureus (Sa) = assay: as above; assay type: cell-based; details: for MIC: Staphylococcus aureus, read-out: Sa + bicarb MIC
Outline: as §1

[1] = tested on: E. coli S30 extract (bacterial protein synthesis); assay: E. coli S30 extract coupled transcription-translation luciferase assay (inhibition of bacterial protein synthesis); assay type: biochemical; details: class by IC50 or % inhibition @ 1 μM, read-out: S30 IC50 (μM/% inhib.)
Outline: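 Cell-free coupled transcription-translation in E. coli S30 circular-DNA extract, with pBESTluc plasmid as template and complete amino acid mix. Eight 2-fold compound dilutions were incubated with the extract 1 h at 37 °C, chilled, then luciferase luminescence was read. % inhibition was taken relative to no-inhibitor wells; no-DNA wells gave background.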

[2] = molecular target: Rabbit Reticulocyte Lysate (eukaryotic protein synthesis); assay: Rabbit reticulocyte lysate luciferase assay (inhibition of eukaryotic protein synthesis); assay type: biochemical; details: class by IC50 or % inhibition @ 1 μM, read-out: Rabbit reticulocyte IC50 (μM/% inhib.)
Outline: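 Nuclease-treated rabbit reticulocyte lysate translating luciferase control RNA, with complete amino acids, was incubated at 30° C. for 90 minutes with 2-fold serial compound dilutions. Luminescence was measured after adding luciferase reagent. % inhibition was relative to water controls, with no-RNA wells as background.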

[3] = E. faecalis, growth medium with sodium bicarbonate
[4] = A. baumannii, growth medium with sodium bicarbonate
[5] = E. coli, growth medium with sodium bicarbonate
[6] = P. aeruginosa, growth medium with sodium bicarbonate
[7] = S. aureus, growth medium with sodium bicarbonate

SMILES	Ef + bicarb MIC (E. faecalis (Ef); [3])	MIC (A. baumannii (Ab); [4])	MIC (E. coli (Ec); [5])	Pa MIC + bicarb (P. aeruginosa (Pa); [6])	MIC (S. aureus (Sa); [7])	IC50 [1]	IC50 [2]	Ab + bicarb MIC (A. baumannii (Ab); [4])	E. coli + bicarb MIC (E. coli (Ec); [5])	Sa + bicarb MIC (S. aureus (Sa); [7])	MIC (E. faecalis (Ef); [3])	MIC (P. aeruginosa (Pa); [6])	MIC (E. faecalis (Ef))	MIC (A. baumannii (Ab))	MIC (E. coli (Ec))	MIC (P. aeruginosa (Pa))	MIC (S. aureus (Sa))	Ef + bicarb MIC (E. faecalis (Ef); E. faecalis, growth medium with sodium bicarbonate, hydrochloride salt)	IC50 ([1]; hydrochloride salt)
CCN(C(C)Cc1ccc(-n2ccc(NC(=O)N3CCN(C(=O)C(C)(C)N)CC3)nc2=O)cc1)C1CCC(N)CC1 (centres unmarked) [Compound 281]	+++ (An MIC value (μg/mL) that is less than 8 μg/mL)	> 32 µg/mL	< 8 µg/mL	++ (An MIC value (μg/mL) that is 8 μg/mL or greater and less than 32 μg/mL)	< 8 µg/mL	< 0.5 µM	> 1 µM	–	–	–	–	–	–	–	–	–	–	–	–
CCN(C(C)Cc1ccc(-n2ccc(NC(=O)N3CCN(C(=O)C(C)(C)N)CC3)nc2=O)cc1)C1CCC(N)CC1 (centres unmarked) [Compound 282]	+ (An MIC value (μg/mL) that is 32 μg/mL or greater)	–	–	+ (An MIC value (μg/mL) that is 32 μg/mL or greater)	–	> 1 µM	> 1 µM	+ (An MIC value (μg/mL) that is 32 μg/mL or greater)	+++ (An MIC value (μg/mL) that is less than 8 μg/mL)	+++ (An MIC value (μg/mL) that is less than 8 μg/mL)	–	–	–	–	–	–	–	–	–
Cc1cc(-n2ccc(NC(=O)N3CCN(C(=O)C(C)(C)N)CC3)nc2=O)ccc1CNC1CCC(N)CC1 (centres unmarked) [Compound 283]	–	> 32 µg/mL	< 8 µg/mL	–	< 8 µg/mL	< 0.5 µM	> 1 µM	–	–	–	< 8 µg/mL	> 32 µg/mL	–	–	–	–	–	–	–
Cc1cc(-n2ccc(NC(=O)N3CCN(C(=O)C(C)(C)N)CC3)nc2=O)ccc1CN(C)C1CCC(N)CC1 (centres unmarked) [Compound 284]	–	< 8 µg/mL	< 8 µg/mL	–	< 8 µg/mL	< 0.5 µM	> 1 µM	–	–	–	< 8 µg/mL	8 to 32 µg/mL	–	–	–	–	–	–	–
CCN(Cc1ccc(-n2ccc(NC(=O)N3CCN(C(=O)C(C)(C)N)CC3)nc2=O)cc1C)C1CCC(N)CC1 (centres unmarked) [Compound 285]	–	< 8 µg/mL	< 8 µg/mL	–	< 8 µg/mL	< 0.5 µM	> 1 µM	–	–	–	< 8 µg/mL	8 to 32 µg/mL	–	–	–	–	–	–	–
CN(Cc1ccc(-n2ccc(NC(=O)N3CCN(C(=O)[C@@](C)(N)CO)CC3)nc2=O)cc1)C1CCC(N)CC1 (some centres unmarked) [Compound 286]	–	> 32 µg/mL	< 8 µg/mL	–	< 8 µg/mL	< 0.5 µM	> 1 µM	–	–	–	< 8 µg/mL	> 32 µg/mL	–	–	–	–	–	–	–
CCN(Cc1ccc(-n2ccc(NC(=O)N3CCN(C(=O)[C@@](C)(N)CO)CC3)nc2=O)cc1)C1CCC(N)CC1 (some centres unmarked) [Compound 287]	–	> 32 µg/mL	< 8 µg/mL	–	< 8 µg/mL	< 0.5 µM	> 1 µM	–	–	–	< 8 µg/mL	8 to 32 µg/mL	–	–	–	–	–	–	–
C[C@](N)(CO)C(=O)N1CCN(C(=O)Nc2ccn(-c3ccc(CNC4CCC(N)CC4)cc3)c(=O)n2)CC1 (some centres unmarked) [Compound 288]	–	> 32 µg/mL	< 8 µg/mL	–	< 8 µg/mL	< 0.5 µM	> 1 µM	–	–	–	< 8 µg/mL	> 32 µg/mL	–	–	–	–	–	–	–
NC1CCN(Cc2ccc(-n3ccc(NC(=O)N4CC5(CC(N)C5)C4)nc3=O)cc2)CC1 [Compound 289]	–	> 32 µg/mL	< 8 µg/mL	–	< 8 µg/mL	0.5 to 1 µM	> 1 µM	–	–	–	> 32 µg/mL	> 32 µg/mL	–	–	–	–	–	–	–
CC(CN1CCC[C@H](N)CC1)c1ccc(-n2ccc(NC(=O)N3CCN(C(=O)C(C)(C)N)CC3)nc2=O)cc1 (some centres unmarked) [Compound 290]	–	< 8 µg/mL	< 8 µg/mL	–	< 8 µg/mL	0.5 to 1 µM	> 1 µM	–	–	–	< 8 µg/mL	> 32 µg/mL	–	–	–	–	–	–	–
CC(C)(N)C(N1CCN(C(=O)Nc2ccn(-c3ccc(CN4CCC(N)CC4)cc3)c(=O)n2)CC1)C(F)(F)F (centres unmarked) [Compound 291, hydrochloride salt]	–	–	–	–	–	> 1 µM	> 1 µM	–	–	–	–	–	8 to 32 µg/mL	8 to 32 µg/mL	8 to 32 µg/mL	> 32 µg/mL	< 8 µg/mL	–	–
Cc1cc(NC(=O)N2CCN(C(=O)C(C)(C)N)CC2)nc(=O)n1-c1ccc(CN2CCC(N)CC2)cc1 [Compound 292, hydrochloride salt]	–	–	–	–	–	> 1 µM	> 1 µM	–	–	–	–	–	> 32 µg/mL	> 32 µg/mL	> 32 µg/mL	> 32 µg/mL	> 32 µg/mL	–	–
NC1CCN(Cc2ccc(-n3ccc(NC(=O)N4C[C@H]5C[C@@H](N)C[C@H]5C4)nc3=O)cc2)CC1 [Compound 295, trifluoroacetate salt]	–	–	–	–	–	> 1 µM	> 1 µM	–	–	–	–	–	> 32 µg/mL	> 32 µg/mL	> 32 µg/mL	> 32 µg/mL	> 32 µg/mL	–	–
CC(N)C1CCN(Cc2ccc(-n3ccc(NC(=O)N4CCN(C(=O)C(C)(C)N)CC4)nc3=O)cc2)CC1 (centres unmarked) [Compound 299, hydrochloride salt]	–	–	–	+ (An MIC value (μg/mL) that is 32 μg/mL or greater)	–	–	> 1 µM	+ (An MIC value (μg/mL) that is 32 μg/mL or greater)	+++ (An MIC value (μg/mL) that is less than 8 μg/mL)	+++ (An MIC value (μg/mL) that is less than 8 μg/mL)	–	–	–	–	–	–	–	++ (An MIC value (μg/mL) that is 8 μg/mL or greater and less than 32 μg/mL)	0.5 to 1 µM
CNC1CCC(N(Cc2ccc(-n3ccc(NC(=O)N4CCN(C(=O)C(C)(C)N)CC4)nc3=O)cc2)CC2CC2)CC1 (centres unmarked) [Compound 301, hydrochloride salt]	–	–	–	–	–	0.5 to 1 µM	> 1 µM	–	–	–	–	–	< 8 µg/mL	8 to 32 µg/mL	< 8 µg/mL	> 32 µg/mL	< 8 µg/mL	–	–
NC1CCCN(CCc2ccc(-n3ccc(NC(=O)N4CCN(C(=O)C5CCCN5)CC4)nc3=O)cc2)CC1 (centres unmarked) [Compound 310, hydrochloride salt]	–	–	–	–	–	0.5 to 1 µM	> 1 µM	–	–	–	–	–	> 32 µg/mL	> 32 µg/mL	< 8 µg/mL	> 32 µg/mL	8 to 32 µg/mL	–	–
CCN(Cc1ccc(-n2ccc(NC(=O)N3CCN(C(=O)CNC)CC3)nc2=O)cc1)C1CCC(N)CC1 (centres unmarked) [Compound 313, hydrochloride salt]	–	–	–	–	–	0.5 to 1 µM	> 1 µM	–	–	–	–	–	> 32 µg/mL	> 32 µg/mL	< 8 µg/mL	> 32 µg/mL	< 8 µg/mL	–	–
CCN(Cc1ccc(-n2ccc(NC(=O)N3CCN(C(=O)C4(N)CCC4)CC3)nc2=O)cc1)C1CCC(N)CC1 (centres unmarked) [Compound 315, hydrochloride salt]	–	–	–	–	–	> 1 µM	> 1 µM	–	–	–	–	–	> 32 µg/mL	> 32 µg/mL	8 to 32 µg/mL	> 32 µg/mL	8 to 32 µg/mL	–	–
COc1cc(-n2ccc(NC(=O)N3CCN(C(=O)C(C)(C)N)CC3)nc2=O)ccc1CN(CC1CC1)C1CCC(N)CC1 (centres unmarked) [Compound 317, hydrochloride salt]	–	–	–	–	–	< 0.5 µM	> 1 µM	–	–	–	–	–	8 to 32 µg/mL	> 32 µg/mL	< 8 µg/mL	> 32 µg/mL	< 8 µg/mL	–	–
CC(C)(N)C(=O)N1CCN(C(=O)Nc2ccn(-c3ccc(CNC4C[C@@H](N)C[C@@H](N)C4)cc3)c(=O)n2)CC1 (some centres unmarked) [Compound 321, hydrochloride salt]	–	–	–	–	–	< 0.5 µM	> 1 µM	–	–	–	–	–	> 32 µg/mL	> 32 µg/mL	8 to 32 µg/mL	> 32 µg/mL	> 32 µg/mL	–	–
CC(C)(N)C(=O)N1CCN(C(=O)Nc2ccn(-c3ccc(CN[C@H]4CC[C@H](N)CC4)c(F)c3)c(=O)n2)CC1 [Compound 330, 4-(2-Amino-2-methylpropanoyl)-N-(1-(4-(((trans-4-aminocyclohexyl)amino)methyl)-3-fluorophenyl)-2-oxo-1,2-dihydropyrimidin-4-yl)piperazine-1-carboxamide hydrochloride salt]	–	–	–	–	–	< 0.5 µM	> 1 µM	–	–	–	–	–	> 32 µg/mL	> 32 µg/mL	< 8 µg/mL	> 32 µg/mL	8 to 32 µg/mL	–	–
CC(C)(N)C(=O)N1CCN(C(=O)Nc2ccn(-c3ccc(CN(CC4CC4)C4CCC(N)CC4)c(OC(F)(F)F)c3)c(=O)n2)CC1 (centres unmarked) [Compound 331, hydrochloride salt]	–	–	–	–	–	< 0.5 µM	> 1 µM	–	–	–	–	–	8 to 32 µg/mL	> 32 µg/mL	< 8 µg/mL	> 32 µg/mL	8 to 32 µg/mL	–	–
CC(C)(N)C(=O)N1CCN(C(=O)Nc2ccn(-c3ccc(CN[C@H]4CC[C@H](N)CC4)c(OC(F)(F)F)c3)c(=O)n2)CC1 [Compound 332, hydrochloride salt]	–	–	–	–	–	< 0.5 µM	> 1 µM	–	–	–	–	–	8 to 32 µg/mL	> 32 µg/mL	< 8 µg/mL	> 32 µg/mL	8 to 32 µg/mL	–	–
